The text below walks through data of patent US7879876B2, “Sulfonamide derivatives and use thereof for the modulation of metalloproteinases” (Merck Serono SA, priority 2005, dated 2011).

What all share (format): biochemical
The target of one experiment is T1, collagenase (MMP-1) (Homo sapiens, UniProt P03956).
T1 sequence (P03956 100-469): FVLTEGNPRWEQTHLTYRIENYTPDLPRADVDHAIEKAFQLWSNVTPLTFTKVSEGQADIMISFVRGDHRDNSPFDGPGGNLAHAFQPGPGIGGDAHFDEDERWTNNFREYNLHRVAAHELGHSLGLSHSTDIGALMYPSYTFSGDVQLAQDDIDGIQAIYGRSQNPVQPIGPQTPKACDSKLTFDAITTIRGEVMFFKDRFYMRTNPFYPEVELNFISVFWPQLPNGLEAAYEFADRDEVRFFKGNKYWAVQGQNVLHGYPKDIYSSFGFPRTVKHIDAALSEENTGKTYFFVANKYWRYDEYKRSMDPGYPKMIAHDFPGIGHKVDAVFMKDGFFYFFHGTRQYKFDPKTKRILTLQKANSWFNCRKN
Briefly: MMP-1 enzyme inhibition assay (coumarin-labelled peptide substrate). Particulars: read-out: percentage inhibition MMP1. Put shortly: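 Recombinant human MMP-1, APMA-activated if needed, in Tris-HCl pH 7.6 with NaCl, CaCl2 and 0.05% Brij 35; McaPLGLDpaAR substrate added as 8 μM solution, 2 h at 37 °C. Fluorescence (320/405 nm) read without stopping; IC50 from 10 duplicate concentrations (100 μM–5.1 nM) by four-parameter fit.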

The target of a further experiment is metalloelastase (MMP-12) (Homo sapiens, UniProt P39900). As to the kind of experiment: MMP-12 enzyme inhibition assay (coumarin-labelled peptide substrate). Particulars: read-out: IC50 MMP12. Put shortly:
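Recombinant human MMP-12 assayed per the MMP-9 protocol: Tris-HCl pH 7.6 buffer with NaCl, CaCl2, Brij 35; McaPLGLDpaAR substrate, compounds 100 μM–5.1 nM in duplicate, 2 h at 37° C. Fluorescence read at 405 nm (320 nm excitation) without stopping; IC50 from four-parameter fit.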

Experiment [1] has as its target 92 kDa gelatinase (MMP-9) (Homo sapiens, UniProt P14780). Briefly: MMP-9 enzyme inhibition assay (coumarin-labeled peptide substrate). Conditions: for inhibition at 5 µM: read-out: percentage inhibition MMP9; for pIC50: read-out: IC50 MMP9. Put shortly:
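Recombinant human MMP-9 (APMA-activated if needed) was assayed in 100 mM Tris-HCl pH 7.6, 100 mM NaCl, 10 mM CaCl2, 0.05% Brij 35, with McaPLGLDpaAR substrate at 37° C. for 2 h. Fluorescence was read at ex 320/em 405 nm over ten 3-fold compound doses (100 μM–5.1 nM) in duplicate. IC50 came from a four-parameter fit.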

Another experiment deals with MMP-14 (Homo sapiens, UniProt P50281). Briefly: MMP-14 enzyme inhibition assay (coumarin-labelled peptide substrate). Particulars: read-out: percentage inhibition MMP14. Put shortly: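 Recombinant human enzyme, APMA-activated if necessary, was incubated with McaPLGLDpaAR substrate and compound (10 concentrations in duplicate, 100 μM to 5.1 nM) in Tris-HCl pH 7.6 with NaCl, CaCl2 and Brij 35 for 2 h at 37 °C. Fluorescence was read at 320/405 nm, and IC50 was taken from a four-parameter fit.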

pIC50: −log10 of the molar value.

Sequence of 92 kDa gelatinase (MMP-9) (P14780 107-707 limits assumed): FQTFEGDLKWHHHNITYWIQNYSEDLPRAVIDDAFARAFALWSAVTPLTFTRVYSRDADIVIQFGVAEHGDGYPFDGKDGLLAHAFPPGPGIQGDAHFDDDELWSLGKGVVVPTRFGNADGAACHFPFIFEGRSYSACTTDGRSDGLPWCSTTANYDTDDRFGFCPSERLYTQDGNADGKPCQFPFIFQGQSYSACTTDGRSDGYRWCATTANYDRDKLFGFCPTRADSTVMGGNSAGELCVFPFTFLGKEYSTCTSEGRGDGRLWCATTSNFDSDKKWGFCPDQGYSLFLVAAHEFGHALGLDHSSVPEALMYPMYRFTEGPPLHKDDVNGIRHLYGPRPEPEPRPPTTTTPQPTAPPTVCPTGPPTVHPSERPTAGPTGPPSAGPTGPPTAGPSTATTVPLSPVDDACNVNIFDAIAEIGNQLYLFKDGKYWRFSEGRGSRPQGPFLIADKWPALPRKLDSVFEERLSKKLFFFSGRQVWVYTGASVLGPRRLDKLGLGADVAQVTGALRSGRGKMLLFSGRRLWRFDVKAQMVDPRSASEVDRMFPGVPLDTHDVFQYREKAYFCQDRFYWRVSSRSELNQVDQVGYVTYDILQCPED
Sequence of metalloelastase (MMP-12) (P39900 106-470): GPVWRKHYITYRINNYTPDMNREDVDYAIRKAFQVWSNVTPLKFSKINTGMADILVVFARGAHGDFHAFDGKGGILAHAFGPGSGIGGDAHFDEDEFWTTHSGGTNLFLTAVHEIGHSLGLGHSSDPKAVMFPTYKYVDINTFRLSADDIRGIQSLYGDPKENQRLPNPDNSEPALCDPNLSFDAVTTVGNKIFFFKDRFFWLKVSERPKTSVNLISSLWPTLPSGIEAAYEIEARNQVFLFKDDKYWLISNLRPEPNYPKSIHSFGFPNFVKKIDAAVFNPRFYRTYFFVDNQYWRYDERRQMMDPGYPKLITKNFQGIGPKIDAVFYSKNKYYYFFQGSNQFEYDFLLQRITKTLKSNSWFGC

On to `CC(C)(C)c1ccc2c(c1)CN(S(=O)(=O)CC(COCc1ccccc1)N(O)C=O)CC2` (stereo not shown) [Example 57, N-(2-(benzyloxy)-1-{[(7-tert-butyl-3,4-dihydroisoquinolin-2(1H)-yl)sulfonyl]methyl}ethyl)-N-hydroxyformamide], for which the inhibition at 5 µM (at collagenase (MMP-1); in experiment [1]; on MMP-14) was 0% throughout. The pIC50 at metalloelastase (MMP-12) was 6.93.

Regarding `O=CN(O)C(CS(=O)(=O)N1CCc2ccc(-c3ccncc3)cc2C1)C1CCCC1` (stereo not shown) [Example 79, N-{1-cyclopentyl-2-[(7-pyridin-4-yl-3,4-dihydroisoquinolin-2(1H)-yl)sulfonyl]ethyl}-N-hydroxyformamide], the values for the inhibition at 5 µM (on collagenase (MMP-1); in experiment [1]; at MMP-14) were 0%, 57% and 72%, respectively. For the same molecule, at metalloelastase (MMP-12), the pIC50 is 8.70. Further, the inhibition at 0.1 µM on MMP-14 came out at 19%.

As for `CC(C)c1ccc2c(c1)CCN(S(=O)(=O)C[C@H]([C@H]1CCCO1)N(O)C=O)C2` [Example 45, N-hydroxy-N-{(1S)-2-[(6-isopropyl-3,4-dihydroisoquinolin-2(1H)-yl)sulfonyl]-1-[(2R)-tetrahydrofuran-2-yl]ethyl}formamide], the inhibition at 5 µM at collagenase (MMP-1) worked out at 2%; in experiment [1] it was 47%; at MMP-14 it was 92%. Moreover, the pIC50 on metalloelastase (MMP-12) is 8.82.

For the molecule `CCC(CC)C(CS(=O)(=O)N1CCc2cc(C(C)C)ccc2C1)N(O)C=O` (stereo not shown) [Example 35, N-(2-ethyl-1-{[(6-isopropyl-3,4-dihydroisoquinolin-2(1H)-yl)sulfonyl]methyl}butyl)-N-hydroxyformamide], the inhibition at 5 µM at collagenase (MMP-1) worked out at 6%; in experiment [1], 43%; at MMP-14 it was 85%. The negative-log IC50 (pIC50) on metalloelastase (MMP-12) was 8.38. Further, the inhibition at 0.1 µM at MMP-14 amounted to 7%.

With `CC1(C)OC[C@H](C(CS(=O)(=O)N2CCc3ccc(Cl)cc3C2)N(O)C=O)O1` (stereo partly drawn) [Example 19, N-{2-[(7-chloro-3,4-dihydroisoquinolin-2(1H)-yl)sulfonyl]-1-[(4S)-2,2-dimethyl-1,3-dioxolan-4-yl]ethyl}-N-hydroxyformamide], the inhibition at 5 µM at collagenase (MMP-1) was found to be 45%; on MMP-14, 81%. The results for the pIC50 (on metalloelastase (MMP-12); in experiment [1]) were 8.22 and less than 5.30, respectively. Moreover, the inhibition at 0.1 µM at MMP-14 stood at 10%.

On to `O=CN(O)C(CS(=O)(=O)N1CCc2ccccc2C1)c1cccnc1` (stereo not shown) [Example 10, N-[2-(3,4-dihydroisoquinolin-2(1H)-ylsulfonyl)-1-pyridin-3-ylethyl]-N-hydroxyformamide], for which the inhibition at 5 µM at collagenase (MMP-1) is 8%; on MMP-14, 36%. The pIC50 at metalloelastase (MMP-12) is 7.89; in experiment [1] it was less than 5.30.

With `COc1ccc2c(c1)CN(S(=O)(=O)CC(CCC1CCCO1)N(O)C=O)CC2` (stereo not shown) [Example 33, N-hydroxy-N-[1-{[(7-methoxy-3,4-dihydroisoquinolin-2(1H)-yl)sulfonyl]methyl}-3-(tetrahydrofuran-2-yl)propyl]formamide], the inhibition at 5 µM on collagenase (MMP-1) was found to be 4%; in experiment [1], 15%; on MMP-14, 30%. Moreover, the pIC50 at metalloelastase (MMP-12) was 7.57.

Take `O=CN(O)C(CCC(F)(F)F)CS(=O)(=O)N1CCc2ccc(Cl)cc2C1` (stereo not shown) [Example 76, N-(1-{[(7-chloro-3,4-dihydroisoquinolin-2(1H)-yl)-sulfonyl]methyl}-4,4,4-trifluorobutyl)-N-hydroxyformamide]: the results for the inhibition at 5 µM (on collagenase (MMP-1); in experiment [1]; on MMP-14) were 43%, 14% and 59%, respectively. In addition, the pIC50 on metalloelastase (MMP-12) was 7.66.

Regarding `COc1cc2c(cc1OC)CN(S(=O)(=O)CC([C@H](O)CO)N(O)C=O)CC2` (stereo partly drawn) [Example 24, N-((2S)-1-{[(6,7-dimethoxy-3,4-dihydroisoquinolin-2(1H)-yl)sulfonyl]methyl}-2,3-dihydroxypropyl)-N-hydroxyformamide], the inhibition at 5 µM at collagenase (MMP-1) and on MMP-14 was 0% in each case. In addition, the pIC50 was 6.52 at metalloelastase (MMP-12) and less than 5.30 in experiment [1].

Turning to `CCCCCC(C)(C)C(CS(=O)(=O)N1CCc2cc(C(F)(F)F)ccc2C1)N(O)C=O` (stereo not shown) [Example 63, N-[2,2-dimethyl-1-({[6-(trifluoromethyl)-3,4-dihydro-isoquinolin-2(1H)-yl]sulfonyl}methyl)heptyl]-N-hydroxyformamide], the inhibition at 5 µM on collagenase (MMP-1) was found to be 34%; in experiment [1], 7%; on MMP-14, 9%. The pIC50 at metalloelastase (MMP-12) is 7.06.

On to `O=CN(O)C(CS(=O)(=O)N1CCc2ccc(F)cc2C1)C1CCN(Cc2ccccc2)CC1` (stereo not shown) [Example 53, N-{1-(1-benzylpiperidin-4-yl)-2-[(7-fluoro-3,4-dihydro-isoquinolin-2(1H)-yl)sulfonyl]ethyl}-N-hydroxyformamide], for which the results for the inhibition at 5 µM (on collagenase (MMP-1); in experiment [1]; at MMP-14) were 16%, 5% and 34%, respectively. Also, at metalloelastase (MMP-12), the pIC50 was 6.97.

Consider `CCC(CC)C(CS(=O)(=O)N1CCc2cc(Cl)c(Cl)cc2C1)N(O)C=O` (stereo not shown) [Example 34, N-(1-{[(6,7-dichloro-3,4-dihydroisoquinolin-2(1H)-yl)-sulfonyl]methyl}-2-ethylbutyl)-N-hydroxyformamide], for which the figures for the inhibition at 5 µM (at collagenase (MMP-1); in experiment [1]; on MMP-14) were 12%, 42% and 82%, respectively. Further, at metalloelastase (MMP-12), the negative logarithm of the IC50 (pIC50) was 8.22. The inhibition at 0.1 µM on MMP-14 was 3%.

In the case of `CC(C)(CS(=O)(=O)N1CCc2ccc(Br)cc2C1)N(O)C=O` [Example 56, N-{2-[(7-bromo-3,4-dihydroisoquinolin-2(1H)-yl)sulfonyl]-1,1-dimethylethyl}-N-hydroxyformamide], the results for the inhibition at 5 µM (on collagenase (MMP-1); in experiment [1]; at MMP-14) were 34%, 2% and 48%, respectively. In addition, the negative-log IC50 (pIC50) at metalloelastase (MMP-12) is 7.29.

Regarding `O=CN(O)[C@H](CS(=O)(=O)N1CCc2ccc(Cl)cc2C1)[C@H]1CCCO1` [Example 23, N-{(1S)-2-[(7-chloro-3,4-dihydroisoquinolin-2(1H)-yl)sulfonyl]-1-[(2R)-tetrahydrofuran-2-yl]ethyl}-N-hydroxyformamide], the results for the inhibition at 5 µM at collagenase (MMP-1) and on MMP-14 were 52% and 72%, respectively. Moreover, the pIC50 is 7.55 on metalloelastase (MMP-12) and less than 5.30 in experiment [1]. The inhibition at 0.1 µM on MMP-14 is 7%.

For the molecule `O=CN(O)C(CS(=O)(=O)N1CCc2ccc(C(F)(F)F)cc2C1)C1CC1` (stereo not shown) [Example 83, N-(1-cyclopropyl-2-{[7-(trifluoromethyl)-3,4-dihydroisoquinolin-2(1H)-yl]sulfonyl}ethyl)-N-hydroxyformamide], the inhibition at 5 µM on collagenase (MMP-1) was 4%; in experiment [1] it was 4%; on MMP-14, 6%. For the same molecule, the pIC50 on metalloelastase (MMP-12) is 7.28.

Consider `O=CN(O)C(COc1ccccc1)CS(=O)(=O)N1CCc2ccc(Cl)cc2C1` (stereo not shown) [Example 61, N-[2-[(7-chloro-3,4-dihydroisoquinolin-2(1H)-yl)sulfonyl]-1-(phenoxymethyl)ethyl]-N-hydroxyformamide], for which the inhibition at 5 µM is 22% at collagenase (MMP-1), 12% in experiment [1] and 43% at MMP-14. Also, at metalloelastase (MMP-12), the pIC50 was 7.82.

`CC1(C)OC[C@H](C(CS(=O)(=O)N2Cc3ccccc3C2)N(O)C=O)O1` (stereo partly drawn) [Example 16, N-{2-(1,3-dihydro-2H-isoindol-2-ylsulfonyl)-1-[(4S)-2,2-dimethyl-1,3-dioxolan-4-yl]ethyl}-N-hydroxyformamide]: the inhibition at 0.1 µM on collagenase (MMP-1) (@ 0.1 μM) amounted to 5%; on MMP-14 it was 0%. In addition, the inhibition at 5 µM at collagenase (MMP-1) was 74%; on MMP-14, 80%. The pIC50 was 7.92 at metalloelastase (MMP-12) and less than 5.30 in experiment [1].

`CCC(CC)C(CS(=O)(=O)N1CCc2ccc(OC)cc2C1)N(O)C=O` (stereo not shown) [Example 38, N-(2-ethyl-1-{[(7-methoxy-3,4-dihydroisoquinolin-2(1H)-yl)sulfonyl]methyl}butyl)-N-hydroxyformamide]: the results for the inhibition at 5 µM (on collagenase (MMP-1); in experiment [1]; at MMP-14) were 17%, 50% and 49%, respectively. At metalloelastase (MMP-12), the pIC50 was 8.14.

For orientation: inhibition means the percentage by which the read-out fell short of the control. As usually defined, the pIC50 is −log10 of the IC50, conventionally taken in molar units.
